# Test results as given in ChEMBL document CHEMBL3286147 (J Med Chem, 2014).
# Tests used:
# [1] = system: Hepatitis C virus; assay: Antiviral activity against Hepatitis C virus genotype 1b infected in human HuH7 cells after 72 hrs by FRET assay; assay type: functional, cell-based, Hepacivirus hominis; conditions: Huh-7, 72 h
# [2] = Selectivity ratio of EC50 for Bovine viral diarrhea virus to EC50 for Hepatitis C virus genotype 1b; assay type: functional
# [3] = system: Bovine viral diarrhea virus 1; assay: Antiviral activity against Bovine viral diarrhea virus infected in human HuH7 cells after 72 hrs by luciferase reporter gene assay; assay type: functional, organism-based; conditions: Bovine viral diarrhea virus isolates and strains, Huh-7, 72 h
# [4] = Cytotoxicity against human HuH7 cells by Alamar blue assay; assay type: cell-based, Huh-7
# [5] = system: Hepatitis C virus; assay: Selectivity ratio of EC50 for Hepatitis C virus genotype 1b harboring NS5A Y93H mutation to EC50 for Hepatitis C virus genotype 1b; assay type: functional, Hepacivirus hominis
# [6] = system: Hepatitis C virus; assay: Selectivity ratio of EC50 for Hepatitis C virus genotype 1b harboring NS5A L31V/Q54L mutation to EC50 for Hepatitis C virus genotype 1b; assay type: functional, Hepacivirus hominis
# [7] = system: Hepatitis C virus; assay: Antiviral activity against Hepatitis C virus genotype 1a; assay type: functional, Hepacivirus hominis; conditions: subtype 1a
# [8] = system: Hepatitis C virus; assay: Antiviral activity against Hepatitis C virus genotype 1 infected in human assessed as log10 IU/ml reduction in mean plasma viral load at 1 mg measured at 24 hrs; assay type: functional, Hepacivirus hominis
# [9] = system: Hepatitis C virus; assay: Antiviral activity against Hepatitis C virus genotype 1 infected in human assessed as log10 IU/ml reduction in mean plasma viral load at 10 mg measured at 24 hrs; assay type: functional, Hepacivirus hominis
# [10] = system: Hepatitis C virus; assay: Antiviral activity against Hepatitis C virus genotype 1b infected in human assessed as log10 IU/ml reduction in mean plasma viral load at 100 mg measured at 24 hrs; assay type: functional, Hepacivirus hominis
# [11] = in vivo; conditions: rat, liver, 5 mg/kg
# Description: Ratio of drug level in liver to plasma in rat at 5 mg/kg
# [12] = system: Hepatitis C virus; assay: microbe, parasite or virus in culture; conditions: genotype 2a JFH-1
# Description: Antiviral activity against Hepatitis C virus genotype 2a JFH
# [13] = system: Hepatitis C virus; assay: Antiviral activity against Hepatitis C virus genotype 1b; assay type: functional, Hepacivirus hominis
smiles,measurement,setting,value
C[C@H](NC(=O)OCc1ccccc1)C(=O)Nc1ccc(C2S/C(=N\c3cccc(F)c3)N(Cc3ccco3)C2=O)cc1 (stereo partly drawn),EC50,[1],570 nM
same,Ratio EC50,[2],> 50
same,EC50,[3],> 50000 nM
same,CC50,[4],> 50000 nM
same,Ratio EC50,[5],>5
O=C(Nc1ccc(C2S/C(=N\c3cccc(F)c3)N(Cc3ccco3)C2=O)cc1)[C@H]1CCCN1C(=O)OCc1ccccc1 (stereo partly drawn),EC50,[1],6000 nM
C[C@H](NC(=O)Cc1ccccc1)C(=O)Nc1ccc(C2S/C(=N\c3cccc(F)c3)N(Cc3ccco3)C2=O)cc1 (stereo partly drawn),EC50,[1],5 nM
same,Ratio EC50,[5],>625
same,Ratio EC50,[6],354
C[C@H](NC(=O)CCc1ccccc1)C(=O)Nc1ccc(C2S/C(=N\c3cccc(F)c3)N(Cc3ccco3)C2=O)cc1 (stereo partly drawn),EC50,[1],1900 nM
O=C(Nc1ccc(C2S/C(=N\c3cccc(F)c3)N(Cc3ccco3)C2=O)cc1)[C@@H]1CCCN1C(=O)CCc1ccccc1 (stereo partly drawn),EC50,[1],5500 nM
C[C@H](NC(=O)OCc1ccccc1)C(=O)Nc1ccc(C2S/C(=N\c3cccc(F)c3)N(Cc3cnccn3)C2=O)cc1 (stereo partly drawn),EC50,[1],38 nM
C[C@H](NC(=O)OCc1ccccc1)C(=O)Nc1ccc(C2S/C(=N\c3cccc(F)c3)N(Cc3ccccn3)C2=O)cc1 (stereo partly drawn),EC50,[1],2 nM
O=C(Nc1ccc(/C=C/c2ccc(NC(=O)[C@@H]3CCCN3C(=O)Cc3ccccc3)cc2)cc1)[C@@H]1CCCN1C(=O)Cc1ccccc1,EC50,[7],> 10000 nM
COC(=O)N[C@H](C(=O)N1CCC[C@H]1c1ncc(-c2ccc(-c3ccc(-c4cnc([C@@H]5CCCN5C(=O)[C@@H](NC(=O)OC)C(C)C)[nH]4)cc3)cc2)[nH]1)C(C)C,Activity,[8],1.8 log10IU/ml
same,Activity,[9],3.2 log10IU/ml
same,Activity,[10],3.6 log10IU/ml
same,Kp,[11],5
same,EC50,[12],0.028 nM
O=C1N[C@H]2[C@H](CO[C@H]2CCCCC(=O)N2CCC[C@H]2C(=O)Nc2ccc(/C=C/c3ccc(NC(=O)[C@@H]4CCCN4C(=O)Cc4ccccc4)cc3)cc2)N1,EC50,[13],> 10000 nM
C[C@H](NC(=O)OCc1ccccc1)C(=O)Nc1ccc(C2S/C(=N\c3ccc(N4CCOCC4)c(F)c3)N(Cc3ccco3)C2=O)cc1 (stereo partly drawn),EC50,[1],15 nM
C[C@H](NC(=O)OCc1ccccc1)C(=O)Nc1ccc(C2S/C(=N\c3cccc(F)c3)N(Cc3cc(F)c(F)c(F)c3)C2=O)cc1 (stereo partly drawn),EC50,[1],600 nM
O=C(Nc1ccc(C2S/C(=N\c3cccc(F)c3)N(Cc3ccco3)C2=O)cc1)[C@H]1CCCN1C(=O)Cc1ccccc1 (stereo partly drawn),EC50,[1],2 nM
